From US4535075A, “Dithiolane derivative, process for producing the same and use thereof” (Nihon Nohyaku Co., Ltd., priority 1982, dated 1985) come the findings set out here.

One experiment deals with liver damage induced by carbon tetrachloride. Kind of experiment: Protective (Controlling) effect on liver damage induced by carbon tetrachloride. The class given is in vivo, mice (dd strain). The conditions noted are these: 250 mg/kg p.o., CCl4 0.05 ml/kg after 6 h, 24 h; CCl4 alone >2,100. The source says:
Protective (Controlling) Effect on liver damage induced by carbon tetrachloride.
Carbon tetrachloride administration induces centrilobular necrosis of the liver associated with loss of diphosphopyridine nucleotide, hepatic glycogen, coenzyme A and increase in neutral fat. Release of several enzymes from the hepatocytes, and increases of enzyme activities in the plasma are recognized as the result of the damage of the liver.
A suitable means for evaluating the degree induced by carbon tetrachloride or the degree of protection afforded by drugs is to study the plasma glutamic-pyruvic transaminase (p-GPT) activity. […]
After 6 hours, carbon tetrachloride was administered orally 0.05 ml/kg.
Animals were killed 24 hours after carbon tetrachloride administration, and the liver was grossly observed.
The plasma was obtained by centrifugation. Activity of p-GPT were determined by the method of Reitman and Frankel and expressed in Karmen units.
Score for liver damage index was as follows:
1 Each figure indicated average of 5 mice.
For `CC(C)COC(=O)C(C(=O)OC(C)C)=C1SC(O)C(O)S1` (stereo not shown) [Compound 22], the p-GPT is listed as 9 Karmen units.

In turn, `CCCCOC(=O)C(C(=O)OC(C)C)=C1SC(O)C(O)S1` (stereo not shown) [Compound 21] displayed a p-GPT of 9 Karmen units.

On to `C#CCOC(=O)C(C(=O)OCC#C)=C1SC(O)C(O)S1` (stereo not shown) [Compound 13], for which the p-GPT came to 30 Karmen units.

In turn, `O=C(OC1CCCCC1)C(C(=O)OC1CCCCC1)=C1SC(O)C(O)S1` (stereo not shown) [Compound 10] had a p-GPT of 72 Karmen units.

On to `COCCOC(=O)C(C(=O)OCCOC)=C1SC(O)C(O)S1` (stereo not shown) [Compound 14], for which the p-GPT turned out to be 56 Karmen units.

Take `CCC(COC)OC(=O)C(C(=O)OC(CC)COC)=C1SC(O)C(O)S1` (stereo not shown) [Compound 16]: the p-GPT is given as 30 Karmen units.

`CC(C)(C)OC(=O)C(C(=O)OC(C)(C)C)=C1SC(O)C(O)S1` (stereo not shown) [Compound 7] came in with a p-GPT of 90 Karmen units.

`CCC(C)OC(=O)C(C(=O)OC(C)CC)=C1SC(O)C(O)S1` (stereo not shown) [Compound 6]: the p-GPT was 21 Karmen units.

`O=C(OCc1ccccc1)C(C(=O)OCc1ccccc1)=C1SC(O)C(O)S1` (stereo not shown) [Compound 11] displayed a p-GPT of 33 Karmen units.

Consider `CCCOC(=O)C(C(=O)OCC)=C1SC(O)C(O)S1` (stereo not shown) [Compound 17], for which the p-GPT is listed as 40 Karmen units.

Compound `CCC(C)OC(=O)C(C(=O)OC(C)CC)=C1SC2OC(=S)OC2S1` (stereo not shown) [Compound 111] registered a p-GPT of 18.6 Karmen units.

`COC(=O)C(C(=O)OC)=C1SC(OC(=O)CCC(=O)O)C(OC(=O)CCC(=O)O)S1` (stereo not shown) [Compound 70] displayed a p-GPT of 121.0 Karmen units.

For the compound `CCCOC(=O)C(C(=O)OCCC)=C1SC2OC(=O)OC2S1` (stereo not shown) [Compound 74], the p-GPT was determined as 38.8 Karmen units.

Compound `CCOC(=O)C(C(=O)OCC(C)C)=C1SC(O)C(O)S1` (stereo not shown) [Compound 19] returned a p-GPT of 9 Karmen units.

As for `CC(C)CCOC(=O)C(C(=O)OCCC(C)C)=C1SC2OC(=O)OC2S1` (stereo not shown) [Compound 81], the p-GPT is given as 108.1 Karmen units.

`CCOC(=O)C(C(=O)OCC)=C1SC2OC(=O)OC2S1` (stereo not shown) [Compound 73] came in with a p-GPT of 75.1 Karmen units.

As for `C=CCOC(=O)C(C(=O)OCC=C)=C1SC2OC(=O)OC2S1` (stereo not shown) [Compound 84], the p-GPT stood at 13.9 Karmen units.

Consider `C#CCOC(=O)C(C(=O)OCC#C)=C1SC2OC(=S)OC2S1` (stereo not shown) [Compound 113], for which the p-GPT turned out to be 13.3 Karmen units.

The experiment is the same for the next values; noted with them: 250 mg/kg p.o., CCl4 0.05 ml/kg after 6 h, 24 h; average of 5 mice; 0 Normal, 2 Slightly recognized, 4 Clearly observable damage, 6 Heavy damage; CCl4 alone 5.0.
Consider `CC(C)COC(=O)C(C(=O)OC(C)C)=C1SC(O)C(O)S1` (stereo not shown) [Compound 22], for which the “Liver Damage Index” value was determined as 0.0.

`CCCCOC(=O)C(C(=O)OC(C)C)=C1SC(O)C(O)S1` (stereo not shown) [Compound 21]: the “Liver Damage Index” value is listed as 0.0.

Turning to `C#CCOC(=O)C(C(=O)OCC#C)=C1SC(O)C(O)S1` (stereo not shown) [Compound 13], the “Liver Damage Index” value was 0.0.

Turning to `O=C(OC1CCCCC1)C(C(=O)OC1CCCCC1)=C1SC(O)C(O)S1` (stereo not shown) [Compound 10], the “Liver Damage Index” value is reported as 0.0.

With `COCCOC(=O)C(C(=O)OCCOC)=C1SC(O)C(O)S1` (stereo not shown) [Compound 14], the “Liver Damage Index” value worked out at 0.2.

In the case of `CCC(COC)OC(=O)C(C(=O)OC(CC)COC)=C1SC(O)C(O)S1` (stereo not shown) [Compound 16], the “Liver Damage Index” value is recorded as 0.2.

Turning to `CC(C)(C)OC(=O)C(C(=O)OC(C)(C)C)=C1SC(O)C(O)S1` (stereo not shown) [Compound 7], the “Liver Damage Index” value amounted to 0.0.

For `CCC(C)OC(=O)C(C(=O)OC(C)CC)=C1SC(O)C(O)S1` (stereo not shown) [Compound 6], the “Liver Damage Index” value came out at 0.0.

`O=C(OCc1ccccc1)C(C(=O)OCc1ccccc1)=C1SC(O)C(O)S1` (stereo not shown) [Compound 11]: the “Liver Damage Index” value came to 0.0.

For `CCCOC(=O)C(C(=O)OCC)=C1SC(O)C(O)S1` (stereo not shown) [Compound 17], the “Liver Damage Index” value was determined as 0.6.

Take `CCC(C)OC(=O)C(C(=O)OC(C)CC)=C1SC2OC(=S)OC2S1` (stereo not shown) [Compound 111]: the “Liver Damage Index” value is given as 0.8.

For `COC(=O)C(C(=O)OC)=C1SC(OC(=O)CCC(=O)O)C(OC(=O)CCC(=O)O)S1` (stereo not shown) [Compound 70], the “Liver Damage Index” value is listed as 1.2.

Regarding `CCCOC(=O)C(C(=O)OCCC)=C1SC2OC(=O)OC2S1` (stereo not shown) [Compound 74], the “Liver Damage Index” value was found to be 0.

Turning to `CCOC(=O)C(C(=O)OCC(C)C)=C1SC(O)C(O)S1` (stereo not shown) [Compound 19], the “Liver Damage Index” value is 0.4.

Take `CC(C)CCOC(=O)C(C(=O)OCCC(C)C)=C1SC2OC(=O)OC2S1` (stereo not shown) [Compound 81]: the “Liver Damage Index” value worked out at 1.2.

Consider `CCOC(=O)C(C(=O)OCC)=C1SC2OC(=O)OC2S1` (stereo not shown) [Compound 73], for which the “Liver Damage Index” value is 0.8.

As to `C=CCOC(=O)C(C(=O)OCC=C)=C1SC2OC(=O)OC2S1` (stereo not shown) [Compound 84], the “Liver Damage Index” value came to 0.

Take `C#CCOC(=O)C(C(=O)OCC#C)=C1SC2OC(=S)OC2S1` (stereo not shown) [Compound 113]: the “Liver Damage Index” value stood at 0.6.

Another experiment relates to liver damage induced by α-naphthyl isothiocyanate (ANIT). Kind of experiment: Protective effect on liver damage induced by ANIT (Method 1). It is filed as in vivo, mice. Particulars: Table 3-1; 2 x 250 mg/kg p.o., ANIT 35 mg/kg p.o., 24 h; control 3.3, ANIT alone 5.3. The source says: Protective effect on liver damage induced by α-naphthyl isothiocyanate (referred to as "ANIT", hereinafter).
It is well known that experimental cholestasis is accomplished by administration with ANIT in mice and rats, and studied as a cholestasis model in human being.
ANIT and CCl4 induce necrosis in the liver. ANIT causes it as small focci in perilobular parenchyna and CCl4 causes centrilobular parenchymal coagulation necrosis.
From these information, the elevation of plasma GPT activity in these models are thought to have defferent characteristics.
Test compounds, dissolved or suspended in olive oil or diethyleneglycol, were orally administered 2 times at intervals of 3 hrs to mice at the dose of 250 mg/kg. At 3 hrs after the second administration with test compounds, ANIT was administered orally at 35 mg/kg.
Mice were sacrificed at 24 hrs after ANIT administration and blood samples were collected. The blood samples were centrifuged and plasma was obtained.
Plasma GPT activity and alkaline phosphatase activity were determined by Reitman & Frankel's method and Bessey-Lowry's method, respectively. The activity was expressed with Karmen Unit and Bessey-Lowry Unit, respectively.
The compound `CC(C)COC(=O)C(C(=O)OC(C)C)=C1SC(O)C(O)S1` (stereo not shown) [Compound 22] gave an Alkaline phosphatase activity of 5.0 B-L.V.

Turning to `CCCCOC(=O)C(C(=O)OC(C)C)=C1SC(O)C(O)S1` (stereo not shown) [Compound 21], the Alkaline phosphatase activity is reported as 4.5 B-L.V.

Compound `CCC(C)OC(=O)C(C(=O)OC(C)CC)=C1SC(O)C(O)S1` (stereo not shown) [Compound 6] gave an Alkaline phosphatase activity of 4.9 B-L.V.

In turn, `CCCOC(=O)C(C(=O)OCC)=C1SC(O)C(O)S1` (stereo not shown) [Compound 17] registered an Alkaline phosphatase activity of 4.8 B-L.V.

Regarding `CCOC(=O)C(C(=O)OCC(C)C)=C1SC(O)C(O)S1` (stereo not shown) [Compound 19], the Alkaline phosphatase activity is 5.1 B-L.V.

The experiment is the same for the next values; noted with them: Table 3-1; 2 x 250 mg/kg p.o., ANIT 35 mg/kg p.o., 24 h; control 7.4, ANIT alone 324.0.
`CC(C)COC(=O)C(C(=O)OC(C)C)=C1SC(O)C(O)S1` (stereo not shown) [Compound 22] registered a p-GPT of 221.0 K.U.

Regarding `CCCCOC(=O)C(C(=O)OC(C)C)=C1SC(O)C(O)S1` (stereo not shown) [Compound 21], the p-GPT is given as 293.1 K.U.

In turn, `CCC(C)OC(=O)C(C(=O)OC(C)CC)=C1SC(O)C(O)S1` (stereo not shown) [Compound 6] yielded a p-GPT of 142.0 K.U.

`CCCOC(=O)C(C(=O)OCC)=C1SC(O)C(O)S1` (stereo not shown) [Compound 17] returned a p-GPT of 242.0 K.U.

In turn, `CCOC(=O)C(C(=O)OCC(C)C)=C1SC(O)C(O)S1` (stereo not shown) [Compound 19] came in with a p-GPT of 170.5 K.U.

Still in this experiment, the particulars now being: Table 3-2; 2 x 250 mg/kg p.o., ANIT 35 mg/kg p.o., 24 h; ANIT alone 5.3.
In turn, `C#CCOC(=O)C(C(=O)OCC#C)=C1SC(O)C(O)S1` (stereo not shown) [Compound 13] returned an Alkaline phosphatase activity of 4.5 B-L.V.

`O=C(OC1CCCCC1)C(C(=O)OC1CCCCC1)=C1SC(O)C(O)S1` (stereo not shown) [Compound 10]: the Alkaline phosphatase activity is 4.9 B-L.V.

Regarding `COCCOC(=O)C(C(=O)OCCOC)=C1SC(O)C(O)S1` (stereo not shown) [Compound 14], the Alkaline phosphatase activity was found to be 3.1 B-L.V.

In turn, `CCC(COC)OC(=O)C(C(=O)OC(CC)COC)=C1SC(O)C(O)S1` (stereo not shown) [Compound 16] showed an Alkaline phosphatase activity of 5.0 B-L.V.

`CC(C)(C)OC(=O)C(C(=O)OC(C)(C)C)=C1SC(O)C(O)S1` (stereo not shown) [Compound 7] displayed an Alkaline phosphatase activity of 3.5 B-L.V.

Turning to `O=C(OCc1ccccc1)C(C(=O)OCc1ccccc1)=C1SC(O)C(O)S1` (stereo not shown) [Compound 11], the Alkaline phosphatase activity came to 4.3 B-L.V.

Staying with this experiment, now noted: Table 3-2; 2 x 250 mg/kg p.o., ANIT 35 mg/kg p.o., 24 h; ANIT alone >653.7.
Turning to `C#CCOC(=O)C(C(=O)OCC#C)=C1SC(O)C(O)S1` (stereo not shown) [Compound 13], the p-GPT came to 265.6 K.U.

Compound `O=C(OC1CCCCC1)C(C(=O)OC1CCCCC1)=C1SC(O)C(O)S1` (stereo not shown) [Compound 10] had a p-GPT of 363.7 K.U.

In the case of `COCCOC(=O)C(C(=O)OCCOC)=C1SC(O)C(O)S1` (stereo not shown) [Compound 14], the p-GPT was 11.5 K.U.

`CCC(COC)OC(=O)C(C(=O)OC(CC)COC)=C1SC(O)C(O)S1` (stereo not shown) [Compound 16]: the p-GPT was 275.2 K.U.

Regarding `CC(C)(C)OC(=O)C(C(=O)OC(C)(C)C)=C1SC(O)C(O)S1` (stereo not shown) [Compound 7], the p-GPT is on record as 422.8 K.U.

For the compound `O=C(OCc1ccccc1)C(C(=O)OCc1ccccc1)=C1SC(O)C(O)S1` (stereo not shown) [Compound 11], the p-GPT is reported as 437.5 K.U.
